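How tested: cells in 96-well plates exposed to compound for 48 hours at five concentrations. Here, GI50 denotes the concentration required for 50% inhibition of growth.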 Activity calls are given as the source filed them. No stated cut-off is given here; in the data, active = GI50 up to about 1.1 µM and inactive = higher.

Holding throughout (test): NCI anticancer screen, dose series, 48 h
Assay [1] relates to UO-31.
Assay [2] has as its system UACC-257.
The subject of assay [3] is 786-0.
Assay [4] relates to MCF7.
The subject of assay [5] is NCI-H226.
For assay [6], the system named is SR.
Assay [7] has as its system OVCAR-4.
Assay [8] relates to NCI-H23.
The test system of assay [9] is OVCAR-5.
Assay [10] has as its system RPMI-8226.
The test system of assay [11] is IGROV-1.
The test system of assay [12] is T47D.
Assay [13] concerns HCT-116.
The test system of assay [14] is OVCAR-8.
Assay [15] concerns SF-295.
Assay [16] concerns CCRF-CEM.
The subject of assay [17] is M14.
For assay [18], the system named is MDA-N.
The test system of assay [19] is SN12C.
Assay [20] deals with U-251.

Turning to `COc1ccc(/C=N/c2c(O)ccc3ccccc23)cc1OC`, the GI50 in assay [1] was > 100 µM (inactive); in [2], 80.5 µM (inactive); in [3], > 100 µM (inactive); in [4] it was > 100 µM (inactive); in assay [5], > 100 µM (inactive); in assay [6], > 100 µM (inactive). Further, the GI50 was > 100 µM (inactive) in [7]; 31.8 µM (inactive) in assay [8]; > 100 µM (inactive) in assay [9]; 19.2 µM (inactive) in [10]; 2.81 µM (inactive) in assay [11]; 84.5 µM (inactive) in assay [12]. Moreover, the GI50 in [13] was 97.9 µM (inactive); in assay [14], > 100 µM (inactive); in assay [15], 63.7 µM (inactive); in assay [16], > 100 µM (inactive); in assay [17] it was 74.5 µM (inactive); in assay [18], 17.1 µM (inactive). The GI50 in assay [19] and in [20] was > 100 µM (inactive) throughout.
On to `CCOC(=O)c1c(C)[n+]([O-])c2cc(Cl)c(Cl)cc2[n+]1[O-]`, for which the GI50 in assay [1] was 24.5 µM (inactive); in assay [2], 16.9 µM (inactive); in assay [3], 28.3 µM (inactive); in assay [4], 32.5 µM (inactive); in assay [5] it was 12 µM (inactive); in assay [6], 8.02 µM (inactive). For the same compound, the GI50 in [7] was 17.5 µM (inactive); in assay [8], 10.7 µM (inactive); in [9] it was 43.6 µM (inactive); in assay [10], 14.4 µM (inactive); in [11], 7.6 µM (inactive); in assay [12] it was 16 µM (inactive). For the same compound, the GI50 is 18.9 µM (inactive) in [13]; 19.7 µM (inactive) in assay [14]; 29.4 µM (inactive) in assay [15]; 18.5 µM (inactive) in assay [16]; 23.1 µM (inactive) in assay [17]; 31 µM (inactive) in [18]. The GI50 in assay [19] is 20.4 µM (inactive); in assay [20], 32.1 µM (inactive).
As for `CCOC(=O)c1sc(N)nc1N1CCCC1`, the GI50 in assay [1], in [2], in assay [3], in assay [4], in [5] and in [6] was > 100 µM (inactive) in each case. Also, the GI50 in assay [7], in assay [8], in assay [9], in assay [10], in assay [11] and in [12] was > 100 µM (inactive) throughout. Also, the GI50 in assay [13], in assay [14], in assay [15], in assay [16], in assay [17] and in assay [18] was > 100 µM (inactive) each time. The GI50 in assay [19] and in assay [20] was > 100 µM (inactive) throughout.
Turning to `CCOC1NC(=O)Oc2cc3ccccc3cc21` (stereo not given), the GI50 in assay [1] is > 100 µM (inactive); in [2], > 100 µM (inactive); in assay [3] it was > 100 µM (inactive); in assay [4], 35.6 µM (inactive); in [5] it was > 100 µM (inactive); in [6], 48.5 µM (inactive). Also, the GI50 in [7] is > 100 µM (inactive); in assay [8], > 100 µM (inactive); in assay [9], > 100 µM (inactive); in assay [10], 95.9 µM (inactive); in assay [11], > 100 µM (inactive); in assay [12], 39.6 µM (inactive). For the same compound, the GI50 in assay [13] was 35 µM (inactive); in assay [14], 48.6 µM (inactive); in assay [15], > 100 µM (inactive); in assay [16] it was 36.5 µM (inactive); in assay [17], 39 µM (inactive); in assay [18], > 100 µM (inactive). In addition, the GI50 in assay [19] is > 100 µM (inactive); in [20], 36.1 µM (inactive).
As to `c1ccc2c(c1)-c1nc3ccccc3cc1C2N1CCOCC1` (stereo not given), the GI50 in assay [1] is 1.37 µM (inactive); in assay [2], > 100 µM (inactive); in assay [3], > 100 µM (inactive); in [4] it was > 100 µM (inactive); in [5], > 100 µM (inactive); in assay [6] it was > 100 µM (inactive). The GI50 was 47.6 µM (inactive) in assay [7]; > 100 µM (inactive) in assay [8]; > 100 µM (inactive) in assay [9]; 72.1 µM (inactive) in [10]; 79.4 µM (inactive) in assay [11]; 45.8 µM (inactive) in assay [12]. Besides, the GI50 in [13] is > 100 µM (inactive); in [14] it was 93.5 µM (inactive); in assay [15], > 100 µM (inactive); in [16] it was 28.4 µM (inactive); in assay [17], > 100 µM (inactive); in assay [18] it was > 100 µM (inactive). The GI50 in assay [19] and in assay [20] was > 100 µM (inactive) each time.
Consider `C/C(=N\NC(=S)N1CCCC1)c1nc2cccnc2[nH]1`, for which the GI50 in assay [1] is 0.0634 µM (active); in [2], 0.289 µM (active); in assay [3] it was 0.177 µM (active); in [4], 0.33 µM (active); in assay [5], 0.277 µM (active); in assay [6] it was 0.202 µM (active). The GI50 is 0.302 µM (active) in [7]; 0.679 µM (active) in assay [8]; 0.457 µM (active) in [9]; 0.553 µM (active) in assay [10]; 0.354 µM (active) in assay [11]; 0.432 µM (active) in assay [12]. Further, the GI50 in assay [13] was 0.163 µM (active); in [14], 0.304 µM (active); in assay [15], 0.254 µM (active); in assay [16], 0.0638 µM (active); in assay [17] it was 0.357 µM (active); in assay [18], 0.979 µM (active). For the same compound, the GI50 in assay [19] was 0.378 µM (active); in assay [20], 0.0962 µM (active).

The values are drawn from ChEMBL document CHEMBL1201862, “PubChem BioAssay data set” (2004).
